Results as given in patent US11691972B2, “Compounds for targeted degradation of BRD9” (C4 Therapeutics, Inc., priority 2020, dated 2023).

Molecular target: T1, BRD9 (Homo sapiens, UniProt Q9H8M2)
T1 sequence (Q9H8M2 1-597): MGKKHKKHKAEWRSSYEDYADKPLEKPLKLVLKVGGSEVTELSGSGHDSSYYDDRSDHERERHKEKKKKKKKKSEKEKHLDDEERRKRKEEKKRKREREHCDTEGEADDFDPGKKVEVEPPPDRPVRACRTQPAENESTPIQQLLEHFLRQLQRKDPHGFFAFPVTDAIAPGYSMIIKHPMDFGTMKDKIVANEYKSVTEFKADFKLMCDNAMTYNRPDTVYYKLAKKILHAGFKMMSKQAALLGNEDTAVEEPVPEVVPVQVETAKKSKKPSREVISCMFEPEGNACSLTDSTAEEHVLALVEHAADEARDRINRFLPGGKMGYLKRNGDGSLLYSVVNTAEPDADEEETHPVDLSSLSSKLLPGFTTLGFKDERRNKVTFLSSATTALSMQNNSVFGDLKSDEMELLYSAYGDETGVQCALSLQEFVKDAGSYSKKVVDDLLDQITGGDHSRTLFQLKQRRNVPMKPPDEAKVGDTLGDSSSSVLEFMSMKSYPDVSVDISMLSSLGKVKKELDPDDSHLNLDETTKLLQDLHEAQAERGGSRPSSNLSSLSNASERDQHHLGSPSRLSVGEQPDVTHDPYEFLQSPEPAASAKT
Assay: HiBiT BRD9 degradation assay in 293T.166 (BRD9-HiBiT) cells
Assay type: cell-based
Design: endogenously expressing BRD9 with HiBiT fusion tag via CRISPR; host or cells: 293T.166 (BRD9-HiBiT), also expressing LgBiT ectopically
Details: Table 1; 293T.166 cells, 2.0 hours; class symbols; read-out: HiBiT-Degradation 293T.166 BRD9 2.0 hours (DC50)
Procedure, shortened: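 Luminescence from the Nano-Glo HiBiT lytic reagent quantified BRD9 loss after compounds (top 10 μM, half-log, 11 points, duplicates) were incubated 2 h at 37° C. with 10,000 293T.166 BRD9-HiBiT/LgBiT cells per well, with controls lacking compound or lacking reagent.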

Compound | DC50 [µM]
COc1cc(-c2cn(C)c(=O)c3cnccc23)cc(Cl)c1CN1CCc2c(cccc2CN2CCC(c3ccc(NC4CCC(=O)NC4=O)cc3)C(F)(F)C2)C1 (stereo not shown) [Compound 99] | < 0.1
COc1cc(-c2cn(C)c(=O)c3[nH]ncc23)cc(Cl)c1CN1CCc2c(cccc2CN2CCC(c3ccc(NC4CCC(=O)NC4=O)cc3)C(F)(F)C2)C1 (stereo not shown) [Compound 100] | < 0.1
Cn1cc(-c2ccc(CN3CCc4c(cccc4CN4CCC(c5ccc(NC6CCC(=O)NC6=O)cc5)C(F)(F)C4)C3)c(OC(F)(F)F)c2)c2cn[nH]c2c1=O (stereo not shown) [Compound 101] | < 0.1
COc1cc(-c2cn(C)c(=O)c3[nH]ncc23)cc(OC)c1CN1CCn2c(CN3CCC(c4ccc(NC5CCC(=O)NC5=O)cc4)CC3)ccc2C1 (stereo not shown) [Compound 102] | < 0.1
COc1cc(-c2cn(C)c(=O)c3[nH]ncc23)cc(OC)c1CN1CCc2c(CN3CCC(c4ccc(NC5CCC(=O)NC5=O)cc4)C(F)(F)C3)csc2C1 (stereo not shown) [Compound 103] | < 0.1
COc1cc(-c2cn(C)c(=O)c3[nH]ncc23)cc(OC)c1CN1CCc2c(CC3CCN(c4ccc(NC5CCC(=O)NC5=O)cc4)CC3)cccc2C1 (stereo not shown) [Compound 104, 3-[4-[4-[[2-[[2,6-dimethoxy-4-(6-methyl-7-oxo-1H-pyrazolo[3,4-c]pyridin-4-yl)phenyl]methyl]-3,4-dihydro-1H-isoquinolin-5-yl]methyl]-1-piperidyl]anilino]piperidine-2,6-dione] | < 0.1
COc1cc(-c2cn(C)c(=O)c3[nH]ncc23)cc(Cl)c1CN1CCc2c(CC3CCN(c4ccc(NC5CCC(=O)NC5=O)cc4F)CC3)cccc2C1 (stereo not shown) [Compound 105, 3-[4-[4-[[2-[[2-chloro-6-methoxy-4-(6-methyl-7-oxo-1H-pyrazolo[3,4-c]pyridin-4-yl)phenyl]methyl]-3,4-dihydro-1H-isoquinolin-5-yl]methyl]-1-piperidyl]-3-fluoro-anilino]piperidine-2,6-dione] | < 0.1
COc1cc(-c2cn(C)c(=O)c3[nH]ncc23)cc(OC)c1CN1CCc2c(CC3CCN(c4ccc(NC5CCC(=O)NC5=O)cc4F)CC3)cccc2C1 (stereo not shown) [Compound 106] | < 0.1
COc1cc(-c2cn(C)c(=O)c3cnccc23)cc(Cl)c1CN1CCc2c(CC3CCN(c4ccc(NC5CCC(=O)NC5=O)cc4F)CC3)cccc2C1 (stereo not shown) [Compound 107] | < 0.1
COc1cc(-c2cn(C)c(=O)c(C)c2C)cc(OC)c1CN1CCc2c(CC3CCN(c4ccc(NC5CCC(=O)NC5=O)cc4C(F)(F)F)CC3)cccc2C1 (stereo not shown) [Compound 108] | < 0.1
COc1cc(-c2cn(C)c(=O)c(C)c2C)cc(Cl)c1CN1CCc2c(CC3CCN(c4ccc(NC5CCC(=O)NC5=O)cc4F)CC3)cccc2C1 (stereo not shown) [Compound 109] | < 0.1
COc1cc(-c2cn(C)c(=O)c3[nH]ncc23)cc(OC)c1CN1C[C@H]2CC(C(=O)N3CCC(c4ccc(NC5CCC(=O)NC5=O)cc4)CC3)C[C@H]2C1 (stereo partly drawn) [Compound 110, 3-[4-[1-[(3aR,6aS)-2-[[2,6-dimethoxy-4-(6-methyl-7-oxo-1H-pyrazolo[3,4-c]pyridin-4-yl)phenyl]methyl]-3,3a,4,5,6,6a-hexahydro-1H-cyclopenta[c]pyrrole-5-carbonyl]-4-piperidyl]anilino]piperidine-2,6-dione] | < 0.1
COc1cc(-c2cn(C)c(=O)c3[nH]ncc23)cc(OC)c1CN1CCN(C(=O)CN2CCN(c3ccc(NC4CCC(=O)NC4=O)cc3F)CC2)C(C)(C)C1 (stereo not shown) [Compound 111, 3-[4-[4-[2-[4-[[2,6-dimethoxy-4-(6-methyl-7-oxo-1H-pyrazolo[3,4-c]pyridin-4-yl)phenyl]methyl]-2,2-dimethyl-piperazin-1-yl]-2-oxo-ethyl]piperazin-1-yl]-3-fluoro-anilino]piperidine-2,6-dione] | < 0.1
COc1cc(-c2cn(C)c(=O)c3[nH]ncc23)cc(F)c1CN1CCC(N(C)C(=O)N2CCC(c3ccc(NC4CCC(=O)NC4=O)cc3)CC2)CC1 (stereo not shown) [Compound 112, 4-[4[(2,6-dioxo-3-piperidyl)amino]phenyl]-N-[1-[[2-fluoro-6-methoxy-4-(6-methyl-7-oxo-1H-pyrazolo[3,4-c]pyridin-4-yl)phenyl]methyl]-4-piperidyl]-N-methyl-piperidine-1-carboxamide] | < 0.1
CN(C(=O)N1CCC(c2ccc(NC3CCC(=O)NC3=O)cc2)CC1)C1CCN(Cc2ccc(-c3cn(C)c(=O)c4ccccc34)cc2OC(F)(F)F)CC1 (stereo not shown) [Compound 113] | < 0.1
CN(C(=O)N1CCC(c2ccc(NC3CCC(=O)NC3=O)cc2)CC1)C1CCN(Cc2ccc(-c3cn(C)c(=O)c4cc(F)ccc34)cc2OC(F)(F)F)CC1 (stereo not shown) [Compound 114] | < 0.1
COc1cc(-c2cn(C)c(=O)c3cnccc23)cc(Cl)c1CN1CCC(N(C)C(=O)N2CCC(c3ccc(NC4CCC(=O)NC4=O)cc3)CC2)CC1 (stereo not shown) [Compound 115] | < 0.1
CN(C(=O)N1CCC(c2ccc(NC3CCC(=O)NC3=O)cc2)CC1)C1CCN(Cc2ccc(-c3cn(C)c(=O)c4[nH]ncc34)cc2OC(F)(F)F)CC1 (stereo not shown) [Compound 116] | < 0.1
COc1cc(-c2cn(C)c(=O)c3[nH]ncc23)cc(Cl)c1CN1CCC(N(C)C(=O)N2CCC(c3ccc(NC4CCC(=O)NC4=O)cc3)CC2)CC1 (stereo not shown) [Compound 117] | < 0.1

Compound | DC50 [µM]
COc1cc(-c2cn(C)c(=O)c3ccccc23)cc(F)c1CN1CCC(N(C)C(=O)N2CCC(c3ccc(NC4CCC(=O)NC4=O)cc3)CC2)CC1 (stereo not shown) [Compound 119] | < 0.1
COc1cc(-c2cn(C)c(=O)c3[nH]ncc23)cc(Cl)c1CN1CCC(N(C)C(=O)N2CCC(c3ccc(OC4CCC(=O)NC4=O)cc3)CC2)CC1 (stereo not shown) [Compound 120] | < 0.1
COc1cc(-c2cn(C)c(=O)c3ccccc23)cc(Cl)c1CN1CCC(N(C)C(=O)N2CCC(c3ccc(NC4CCC(=O)NC4=O)cc3)CC2)CC1 (stereo not shown) [Compound 121] | < 0.1
CN(C(=O)N1CCC(c2ccc(NC3CCC(=O)NC3=O)cc2)CC1)C1CCN(Cc2ccc(-c3cn(C)c(=O)c4cnccc34)cc2OC(F)(F)F)CC1 (stereo not shown) [Compound 122] | < 0.1
CN(C(=O)N1CCC(c2ccc(NC3CCC(=O)NC3=O)cc2)CC1)C1CCN(Cc2ccc(-c3cn(C)c(=O)c4cc(F)ccc34)cc2OC(F)(F)F)CC1(F)F (stereo not shown) [Compound 123] | < 0.1
COc1cc(-c2cn(C)c(=O)c3cnccc23)cc(F)c1CN1CCC(N(C)C(=O)N2CCC(c3ccc(NC4CCC(=O)NC4=O)cc3)CC2)C(F)(F)C1 (stereo not shown) [Compound 124] | < 0.1
COc1cc(-c2cn(C)c(=O)c3cnccc23)cc(Cl)c1CN1CCC(N(C)C(=O)N2CCC(c3ccc(NC4CCC(=O)NC4=O)cc3)CC2)C(F)(F)C1 (stereo not shown) [Compound 125] | < 0.1
COc1cc(-c2cn(C)c(=O)c3cnccc23)cc(Cl)c1C(=O)N1CCC(N(C)C(=O)N2CCC(c3ccc(NC4CCC(=O)NC4=O)cc3)CC2)CC1 (stereo not shown) [Compound 126, N-[1-[2-chloro-6-methoxy-4-(2-methyl-1-oxo-2,7-naphthyridin-4-yl)benzoyl]-4-piperidyl]-4-[4-[(2,6-dioxo-3-piperidyl)amino]phenyl]-N-methyl-piperidine-1-carboxamide] | < 0.1
CN(C(=O)N1CCC(c2ccc(NC3CCC(=O)NC3=O)cc2)CC1)C1CCN(C(=O)c2ccc(-c3cn(C)c(=O)c4ccccc34)cc2OC(F)(F)F)CC1 (stereo not shown) [Compound 127] | < 0.1
CN(C(=O)N1CCC(c2ccc(NC3CCC(=O)NC3=O)cc2)CC1)C1CCN(C(=O)c2ccc(-c3cn(C)c(=O)c4ccc(F)cc34)cc2OC(F)(F)F)CC1 (stereo not shown) [Compound 128] | < 0.1
Cc1c(-c2ccc(C(=O)N3CCC(N(C)C(=O)N4CCC(c5ccc(NC6CCC(=O)NC6=O)cc5)CC4)CC3)c(OC(F)(F)F)c2)cn(C)c(=O)c1C (stereo not shown) [Compound 129] | < 0.1
CN(C(=O)N1CCC(c2ccc(NC3CCC(=O)NC3=O)cc2)CC1)C1CCN(C(=O)c2ccc(-c3cn(C)c(=O)c4[nH]ncc34)cc2OC(F)(F)F)CC1 (stereo not shown) [Compound 130] | < 0.1
CN(C(=O)N1CCC(c2ccc(NC3CCC(=O)NC3=O)cc2)CC1)C1CCN(C(=O)c2ccc(-c3cn(C)c(=O)c4cc(F)ccc34)cc2OC(F)(F)F)CC1 (stereo not shown) [Compound 131] | < 0.1
COc1cc(-c2cn(C)c(=O)c3cnccc23)cc(F)c1C(=O)N1CCC(N(C)C(=O)N2CCC(c3ccc(NC4CCC(=O)NC4=O)cc3)CC2)CC1 (stereo not shown) [Compound 132] | < 0.1
COc1cc(-c2cn(C)c(=O)c(C)c2C)cc(Cl)c1C(=O)N1CCC(N(C)C(=O)N2CCC(c3ccc(NC4CCC(=O)NC4=O)cc3)CC2)CC1 (stereo not shown) [Compound 133] | < 0.1
COc1cc(-c2cn(C)c(=O)c3[nH]ncc23)cc(F)c1C(=O)N1CCC(N(C)C(=O)N2CCC(c3ccc(NC4CCC(=O)NC4=O)cc3)CC2)CC1 (stereo not shown) [Compound 134] | < 0.1
COc1cc(-c2cn(C)c(=O)c3ccccc23)cc(OC)c1C(=O)N1CCC(N(C)C(=O)N2CCC(c3ccc(NC4CCC(=O)NC4=O)cc3)CC2)CC1 (stereo not shown) [Compound 135] | < 0.1
COc1cc(-c2cn(C)c(=O)c3ccccc23)cc(Cl)c1C(=O)N1CCC(N(C)C(=O)N2CCC(c3ccc(NC4CCC(=O)NC4=O)cc3)CC2)CC1 (stereo not shown) [Compound 136] | < 0.1
